This is an account of results in patent US8163921B2, “Hepatitis C virus inhibitors” (Bristol-Myers Squibb Company, priority 2008, dated 2012).

This assay has as its target T1, human neutrophil elastase (HNE) (Homo sapiens, UniProt P08246).
T1 construct: purchased Sigma, EMDbiosciences
T1 sequence (P08246 30-247 limits assumed): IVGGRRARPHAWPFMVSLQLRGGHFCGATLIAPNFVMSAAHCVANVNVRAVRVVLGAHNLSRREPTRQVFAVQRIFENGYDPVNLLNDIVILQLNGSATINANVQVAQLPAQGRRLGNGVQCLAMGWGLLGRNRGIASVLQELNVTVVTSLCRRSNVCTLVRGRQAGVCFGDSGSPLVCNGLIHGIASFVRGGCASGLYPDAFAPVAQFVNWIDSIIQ
Nature of the assay: Specificity assay, elastase (HNE). Format: biochemical. To be noted: read-out: HLE activity in the specificity assays. As for the experimental part: The specificities of compounds of the present disclosure were determined against a variety of serine proteases: human neutrophil elastase (HNE), porcine pancreatic elastase (PPE) and human pancreatic chymotrypsin and one cysteine protease: human liver cathepsin B. In all cases a 96-well plate format protocol using a fluorometric Amino-Methyl-Coumarin (AMC) substrate specific for each enzyme was used as described previously (PCT Patent Application No. WO 00/09543) with some modifications to the serine protease assays. All enzymes were purchased from Sigma, EMDbiosciences while the substrates were from Bachem, Sigma and EMDbiosciences.
Compound concentrations varied from 100 to 0.4 μM depending on their potency. The enzyme assays were each initiated by addition of substrate to enzyme-inhibitor pre-incubated for 10 min at room temperature and hydrolysis to 15% conversion as measured on cytofluor.
50 mM Tris-HCl, pH 8.0, 50 mM NaCl, 0.1 mM EDTA, 3% DMSO, 0.02% Tween-20, 5 μM succ-AAPV-AMC and 20 nM HNE or 8 nM PPE;
The percentage of inhibition was calculated using the formula: [1−((UVinh−UVblank)/(UVctl−UVblank))]×100
A non-linear curve fit was applied to the inhibition-concentration data, and the 50% effective concentration (IC50) was calculated by the use of Excel XLfit software.

pIC50: −log10 of the molar value.

Turning to `C=C[C@@H]1C[C@]1(NC(=O)[C@@H]1C[C@@H](Oc2ncc(OC)c3ccc(Cl)cc23)CN1C(=O)[C@@H](Nc1nc(-c2cccc(OC(F)(F)F)c2)cs1)C(C)(C)C)C(=O)NS(=O)(=O)C1CC1` [Example 68], the pIC50 is less than 4.30.
